Data on 20 compounds can be found in patent publication US20230373972A1, “PIPERAZINE DERIVATIVE, PREPARATION METHOD THEREFOR AND USE THEREOF” (Zhejiang Hisun Pharmaceutical Co., Ltd., priority 2020, published 2023).

One assay deals with human plasma. The assay is described as follows: In-vitro anticoagulation on human plasma (APTT kit, coagulation time). The conditions noted are these: concentration of the compound when the coagulation time (APTT) was prolonged twice. Here is the method: The following method was used to determine the in-vitro anticoagulation of the compound of the present invention in the human plasma. In the method, an APTT kit of the MediRox company was used to test. The APTT kit was purchased from MediRox (article number MRX930), and the human plasma was prepared internally.
The preparation of the human plasma was briefly described as follows: human plasma was collected in a blood collection tube containing sodium citrate, and centrifuged at 3,000 rpm for 10 minutes at room temperature, and plasma was collected, and packaged separately and stored at −80° C.
An APTT test process was briefly described as follows: a test compound was dissolved in DMSO to prepare a 10 mM storage solution first, then the test compound was diluted with DMSO by a triple gradient, and a final concentration of the test compound in a reaction system ranged from 217 μM to 0.03 μM. 4 μL, of test compounds at different concentrations diluted with DMSO were added to a centrifuge tube containing 180 μL of plasma, and 4 μL of DMSO was added to a blank group, shaken and mixed evenly, and incubated at 37° C. for 5 minutes. Subsequently, an APTT reagent was placed in a reagent holder according to instrument requirements, the incubated plasma sample was placed in a detection position of a coagulation analyzer, and a coagulation time was determined and recorded (s). With a final concentration of the compound as an abscissa and Ratio (Ratio=TiT0, wherein T0 was a coagulation time of a blank control, and Ti was a coagulation time of a compound to be tested) as an ordinate, a coagulation dose-effect curve was drawn by Graph Pad Prisms, and a concentration of the compound when the coagulation time was prolonged twice was calculated, which was namely a CT2 value, as shown in Table 2.

In assay [1] the target is T1, Native human Factor XIa protease (Homo sapiens, UniProt P03951).
T1 construct: The Native human Factor XIa protease was purchased from Abcam; purchased Abcam ab62411
The assay is described as follows: Inhibition of activity of Factor XIa protease (chromogenic substrate S-2366). The class given is biochemical. Conditions: S-2366 1 mM, 37° C. 10 minutes, absorption at 405 nm. From the text: The following method was used to determine an inhibition degree of the compound of the present invention on an activity of Native human Factor XIa protease in vitro. In the method, a Factor XIa chromogenic substrate was used to test the inhibition degree on the activity of the Factor XIa protease. The Native human Factor XIa protease was purchased from Abcam (article number ab62411), and S-2366 was purchased from Chromogenix (article number 82109039). An experimental process was briefly described as follows: a test compound was dissolved in DMSO to prepare a 10 mM storage solution first, then the compound was diluted with a Factor XIa reaction buffer (100 mM Tris-HCl, 200 mM NaCl, 0.02% Tween 20, pH 7.4) by a quadruple gradient, and a final concentration of the test compound in a reaction system ranged from 10,000 nM to […]. The reaction was carried out in a 384-well microplate. 2 μL of the test compounds at different concentrations diluted with the reaction buffer were added to wells first, and 2 μL of 1% DMSO (a final concentration of DMSO in the reaction system was 0.1%) was used to replace blank and control wells. Subsequently, 8 μL of enzyme working solution (a final concentration of Factor XIa was […]) was added to each well, and 8 μL of Factor XIa reaction buffer was used to replace the blank well, centrifuged for 30 seconds, and incubated on ice for 5 minutes. Finally, 10 μL of substrate working solution (a final concentration of S-2366 was 1 mM) was added to each well, and centrifuged for 30 seconds, and the reaction was started. The solution was incubated at 37° C. for 10 minutes to determine a light absorption value at 405 nm. By comparing with a light absorption value of the control group (0.1% DMSO), a percentage inhibition rate of the compound at each concentration was calculated, and nonlinear regression analysis was carried out on value-inhibition rate with the concentration of the compound by GraphPad Prism 5 software, so as to obtain an IC50 value of the compound, as shown in Table 1.

As a reminder, the IC50 is the midpoint of a concentration-inhibition curve. Read a high IC50 as weaker potency in that assay.

T1 sequence (P03951 388-625 limits assumed): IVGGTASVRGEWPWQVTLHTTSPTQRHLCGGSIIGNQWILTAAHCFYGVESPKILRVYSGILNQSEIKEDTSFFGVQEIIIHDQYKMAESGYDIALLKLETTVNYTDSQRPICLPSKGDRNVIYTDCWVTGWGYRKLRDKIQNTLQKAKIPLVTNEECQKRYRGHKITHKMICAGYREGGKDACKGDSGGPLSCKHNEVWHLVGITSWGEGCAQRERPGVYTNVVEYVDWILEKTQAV
T1 sequence (P03951 19-387 partner limits assumed): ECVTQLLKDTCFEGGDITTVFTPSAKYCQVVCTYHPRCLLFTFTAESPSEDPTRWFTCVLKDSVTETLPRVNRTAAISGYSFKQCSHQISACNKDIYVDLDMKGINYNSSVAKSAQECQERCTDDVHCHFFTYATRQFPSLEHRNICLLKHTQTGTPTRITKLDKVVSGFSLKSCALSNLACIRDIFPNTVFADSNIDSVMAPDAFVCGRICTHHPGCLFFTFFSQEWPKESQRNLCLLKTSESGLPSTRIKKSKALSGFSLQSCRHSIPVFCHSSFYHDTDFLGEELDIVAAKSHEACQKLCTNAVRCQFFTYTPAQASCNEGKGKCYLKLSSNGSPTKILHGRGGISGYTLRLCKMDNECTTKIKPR

`COC(=O)Nc1ccc(NC(=O)C(Cc2ccccc2)N2CC(=O)N(c3cc(Cl)ccc3-n3cnnn3)CC2=O)cc1` (stereo not drawn) [Example 2, Methyl (4-(2-(4-(5-chloro-2-(1H-tetrazol-1-yl)phenyl)-2,5-dioxopiperazin-1-yl)-3-phenylpropanamido)phenyl)carbamate]: the “CT2” value in the assay on human plasma came to 12.6 µM. Also, in assay [1], the IC50 turned out to be 44.9 nM.

Regarding `NC(=O)c1ccc(NC(=O)C(Cc2ccccc2)N2CC(=O)N(c3cc(Cl)ccc3-n3cnnn3)CC2=O)cc1` (stereo not drawn) [Example 3, 4-(2-(4-(5-Chloro-2-(1H-tetrazol-1-yl)phenyl)-2,5-dioxopiperazin-1-yl)-3-phenylpropanamido)benzamide], the “CT2” value in the assay on human plasma was 6.6 µM. The compound also gave an IC50 in assay [1] of 36.7 nM.

For `COC(=O)c1ccc(NC(=O)C(Cc2ccccc2)N2CC(=O)N(c3cc(Cl)ccc3-n3cnnn3)CC2=O)cc1` (stereo not drawn) [Example 5, Methyl 4-(2-(4-(5-Chloro-2-(1H-tetrazol-1-yl)phenyl)-2,5-dioxopiperazin-1-yl)-3-phenylpropanamido)benzoate], in the assay on human plasma, the “CT2” value worked out at 17.8 µM. Besides, half-maximal inhibition in assay [1] (IC50) required 29.9 nM.

For the compound `CNC(=O)c1ccc(NC(=O)C(Cc2ccccc2)N2CC(=O)N(c3cc(Cl)ccc3-n3cnnn3)CC2=O)cc1` (stereo not drawn) [Example 6, 4-(2-(4-(5-Chloro-2-(1H-tetrazol-1-yl)phenyl)-2,5-dioxopiperazin-1-yl)-3-phenylpropanamido)-N-methylbenzamide], in the assay with human plasma, the “CT2” value came out at 4.9 µM. The compound further gave an IC50 in assay [1] of 34.6 nM.

As to `O=C1NCc2cc(NC(=O)C(Cc3ccccc3)N3CC(=O)N(c4cc(Cl)ccc4-n4cnnn4)CC3=O)ccc21` (stereo not drawn) [Example 7, 2-(4-(5-Chloro-2-(1H-tetrazol-1-yl)phenyl)-2,5-dioxopiperazine-1-yl)-N-(1-oxoisoindolin-5-yl)-3-phenylpropanamide], in the assay with human plasma, the “CT2” value stood at 9.8 µM. Besides, the half-inhibitory concentration (IC50) in assay [1] turned out to be 15.5 nM.

On to `O=C(O)c1cccc(NC(=O)C(Cc2ccccc2)N2CC(=O)N(c3cc(Cl)ccc3-n3cnnn3)CC2=O)c1` (stereo not drawn) [Example 9, 3-(2-(4-(5-Chloro-2-(1H-tetrazol-1-yl)phenyl)-2,5-dioxopiperazin-1-yl)-3-phenylpropanamido)benzoic Acid], for which the “CT2” value with human plasma was determined as 2.9 µM. In addition, the IC50 in assay [1] was 7.8 nM.

As to `O=C(O)c1ccc(NC(=O)C(Cc2ccccc2)N2CC(=O)N(c3cc(Cl)ccc3-n3ccnn3)CC2=O)cc1` (stereo not drawn) [Example 11, 4-(2-(4-(5-Chloro-2-(1H-1,2,3-triazole-1-yl)phenyl)-2,5-dioxopiperazin-1-yl)-3-phenylpropanamido)benzoic Acid], the “CT2” value in the assay on human plasma turned out to be 8.1 µM. In addition, in assay [1], the midpoint of inhibition, the IC50, lay at 24.9 nM.

As to `CN1Cc2cc(NC(=O)C(Cc3ccccc3)N3CC(=O)N(c4cc(Cl)ccc4-n4cnnn4)CC3=O)ccc2C1=O` (stereo not drawn) [Example 12, 2-(4-(5-Chloro-2-(1H-tetrazol-1-yl)phenyl)-2,5-dioxopiperazin-1-yl)-N-(2-methyl-1-oxoisoindolin-5-yl)-3-phenylpropanamide], the “CT2” value in the assay with human plasma is 4.4 µM. In assay [1], this compound displayed an IC50 of 22.8 nM.

As to `O=C1Cc2cc(NC(=O)C(Cc3ccccc3)N3CC(=O)N(c4cc(Cl)ccc4-n4cnnn4)CC3=O)ccc2N1` (stereo not drawn) [Example 13, 2-(4-(5-Chloro-2-(1H-tetrazol-1-yl)phenyl)-2,5-dioxopiperazin-1-yl)-N-(2-oxoindolin-5-yl)-3-phenylpropanamide], in the assay with human plasma, the “CT2” value amounted to 4.0 µM. For the same compound, in assay [1], 14.9 nM corresponded to half-maximal inhibition (IC50).

In the case of `O=C(Nc1ccc(N2CCOC2=O)cc1)C(Cc1ccccc1)N1CC(=O)N(c2cc(Cl)ccc2-n2cnnn2)CC1=O` (stereo not drawn) [Example 14, 2-(4-(5-Chloro-2-(1H-tetrazol-1-yl)phenyl)-2,5-dioxopiperazin-1-yl)-N-(4-(2-oxooxazolidin-3-yl)phenyl)-3-phenylpropanamide], the “CT2” value in the assay on human plasma was found to be 14.3 µM. Besides, in assay [1], the 50% inhibitory concentration (IC50) turned out to be 44 nM.

As to `O=C(Nc1cccc(F)c1)C(Cc1ccccc1)N1CC(=O)N(c2cc(Cl)ccc2-n2cnnn2)CC1=O` (stereo not drawn) [Example 15, 2-(4-(5-Chloro-2-(1H-tetrazol-1-yl)phenyl)-2,5-dioxopiperazine-1-yl)-N-(3-fluorophenyl)-3-phenylpropanamide], the “CT2” value with human plasma was determined as 9.9 µM. The compound also registered an IC50 in assay [1] of 25.1 nM.

`CC(=O)c1ccc(NC(=O)C(Cc2ccccc2)N2CC(=O)N(c3cc(Cl)ccc3-n3cnnn3)CC2=O)cc1` (stereo not drawn) [Example 17]: the “CT2” value in the assay on human plasma stood at 11.2 µM. The IC50 in assay [1] was 34.8 nM.

Consider `O=C(Nc1ccc2nccnc2c1)C(Cc1ccccc1)N1CC(=O)N(c2cc(Cl)ccc2-n2cnnn2)CC1=O` (stereo not drawn) [Example 18, 2-(4-(5-Chloro-2-(1H-tetrazol-1-yl)phenyl)-2,5-dioxopiperazin-1-yl)-3-phenyl-N-(quinoxalin-6-yl)propanamide], for which, in the assay on human plasma, the “CT2” value is 7.9 µM. Moreover, half-maximal inhibition in assay [1] (IC50) required 20.5 nM.

In the case of `Cn1cc2cc(NC(=O)C(Cc3ccccc3)N3CC(=O)N(c4cc(Cl)ccc4-n4cnnn4)CC3=O)ccc2n1` (stereo not drawn) [Example 19, 2-(4-(5-Chloro-2-(1H-tetrazol-1-yl)phenyl)-2,5-dioxopiperazin-1-yl)-N-(2-methyl-2H-indazol-5-yl)-3-phenylpropanamide], the “CT2” value with human plasma is 3.0 µM. The IC50 in assay [1] stood at 8.5 nM.

With `CNC(=O)c1ccc(NC(=O)C(Cc2ccccc2)N2CC(=O)N(c3cc(Cl)ccc3-n3cnnn3)CC2=O)cc1F` (stereo not drawn) [Example 20, 4-(2-(4-(5-Chloro-2-(1H-tetrazol-1-yl)phenyl)-2,5-dioxopiperazin-1-yl)-3-phenylpropanamido)-2-fluoro-N-methylbenzamide], the “CT2” value with human plasma worked out at 8.6 µM. Besides, in assay [1], the IC50 stood at 30.5 nM.

As to `COc1nccc2cc(NC(=O)C(Cc3ccccc3)N3CC(=O)N(c4cc(Cl)ccc4-n4cnnn4)CC3=O)ccc12` (stereo not drawn) [Example 23, 2-(4-(5-Chloro-2-(1H-tetrazol-1-yl)phenyl)-2,5-dioxopiperazin-1-yl)-N-(1-methoxyisoquinolin-6-yl)-3-phenylpropanamide], the IC50 in assay [1] came out at 43.2 nM.

In assay [1], `O=C(Nc1ccc2nccnc2c1)C(Cc1ccccc1)N1CC(=O)N(c2cc(Cl)ccc2-n2cc(Cl)nn2)CC1=O` (stereo not drawn) [Example 24, 2-(4-(5-Chloro-2-(4-chloro-1H-1,2,3-triazol-1-yl)phenyl)-2,5-dioxopiperazin-1-yl)-3-phenyl-N-(quinoxalin-6-yl)propanamide] yielded a 50% inhibitory concentration (IC50) of 23.2 nM.

As for `O=C(O)c1ccc(NC(=O)C(Cc2ccccc2)N2CC(=O)N(c3cc(Cl)ccc3-n3cc(Cl)nn3)CC2=O)cc1` (stereo not drawn) [Example 26, 4-(2-(4-(5-Chloro-2-(4-chloro-1H-1,2,3-triazol-1-yl)phenyl)-2,5-dioxopiperazin-1-yl)-3-phenylpropanamido)benzoic Acid], the “CT2” value with human plasma was found to be 7.0 µM. In assay [1], this compound gave an IC50 of 16.9 nM.

In turn, `O=C(Nc1ccn2nccc2c1)C(Cc1ccccc1)N1CC(=O)N(c2cc(Cl)ccc2-n2cc(Cl)nn2)CC1=O` (stereo not drawn) [Example 40, 2-(4-(5-chloro-2-(4-chloro-1H-1,2,3-triazol-1-yl)phenyl)-2,5-dioxopiperazin-1-yl)-3-phenyl-N-(pyrazolo[1.5-a]pyridin-5-yl)propanamide] gave an IC50 in assay [1] of 44.7 nM.

In assay [1], `NC(=O)c1ccc(NC(=O)[C@H](Cc2ccccc2)N2CC(=O)N(c3cc(Cl)ccc3-n3cc(Cl)nn3)CC2=O)cc1F` [Example 137, (S)-4-(2-(4-(5-chloro-2-(4-chloro-1H-1,2,3-triazol-1-yl)phenyl)-2,5-dioxopiperazin-1-yl)-3-phenylpropanamido)-2-fluorobenzamide] had an IC50 of 27.3 nM.
